This note sets out measurements from PubChem BioAssay (NCI).

What all share (experiment): NCI anticancer screen, dose series, 48 h
The test system of assay [1] is TK-10 renal.
The subject of assay [2] is IGROV1 ovarian.
The subject of assay [3] is SN12C renal.
The subject of assay [4] is RPMI-8226 leukemia.
For assay [5], the system named is NCI-H23 lung.
The test system of assay [6] is MDA-MB-231 breast.
Assay [7] concerns HT29 colon.
Assay [8] relates to HOP-92 NSCLC.
The test system of assay [9] is SF-539 CNS.
Assay [10] concerns LOX IMVI melanoma.

Each structure is given as a SMILES string. Where “and” joins values, the source holds several entries; their conditions need not be identical. Equal values may be shown once.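 The compound was tested at five concentrations on cells cultured in 96-well plates, with a 48-hour exposure period. GI50 = concentration required for 50% inhibition of growth. TGI denotes the concentration required for complete inhibition of growth.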 Bounds are passed on as bounds.

Regarding `Cc1ccc(-n2c3c(c4c(CN5CCOCC5)c(O)ccc42)CCc2ccccc2C3=O)cc1`, the GI50 was more than 100 µM in assay [1]; 23.3 µM in [2]; 46.9 µM in assay [3]; 21 µM in assay [4]; more than 100 µM in assay [5]; 37.8 µM in [6]. Moreover, the GI50 is 68.2 µM in assay [8], more than 100 µM in assay [9] and more than 100 µM in assay [10]. In addition, the TGI in assay [1], in [2], in assay [3], in assay [4], in [5] and in [6] was more than 100 µM in each case. In addition, the TGI in assay [7] is 0.241 µM; in assay [8], more than 100 µM; in [9] it was more than 100 µM; in assay [10] it was more than 100 µM.
For the compound `COc1ccc2[nH]c(-c3ccccc3)cc2c1`, the GI50 in [1] was more than 100 µM; in assay [2], more than 100 µM; in assay [3], more than 100 µM; in assay [4], 43.2 µM; in assay [5], 97.9 µM; in assay [6], 61.8 µM. Moreover, the GI50 in assay [7] was more than 100 µM; in assay [8], 70 µM; in [9], more than 100 µM; in assay [10], more than 100 µM. The TGI in assay [1], in assay [2], in assay [3], in assay [4], in assay [5] and in assay [6] was more than 100 µM throughout. Further, the TGI in assay [7], in [8], in [9] and in assay [10] was more than 100 µM in each case.
Regarding `O=c1oc2ccc(F)cc2c(=O)n1-c1ccc(Br)cc1F`, the GI50 was 4.22 µM in [1]; 0.444 µM in assay [2]; 0.376 µM in [3]; 0.27 µM in [4]; 0.481 µM in [5]; 0.434 µM in assay [6]. For the same compound, the GI50 was 3.4 µM in assay [7], 0.168 µM in assay [8], 0.45 µM in assay [9] and 0.456 µM in assay [10]. For the same compound, the TGI in assay [1] was 18 µM; in assay [2], 22.7 µM; in assay [3], 7.6 µM; in assay [4] it was 1.05 µM; in assay [6], 7.28 µM; in assay [7] it was more than 44.3 µM. Besides, the TGI was determined as 0.528 µM in assay [8], 6.35 µM in assay [9] and 4.24 µM in assay [10].
As to `CC[C@@]1(O)C(=O)OCc2c1cc1n(c2=O)Cc2cc3c(N)cccc3nc2-1`, the TGI is 38.2 µM in assay [1]; 6.26 µM in assay [2]; more than 23.3 µM in [3]; 4.72 µM in assay [4]; 0.0511 µM and 0.162 µM in [5]; more than 19.9 µM in [6]. In addition, the TGI is more than 30.1 µM in assay [7], 1.99 µM in assay [8], 0.0184 µM in [9] and 0.255 µM in assay [10]. For the same compound, the GI50 in assay [3] is 0.00812 µM; in assay [5], 0.00525 µM; in assay [7], 0.0774 µM; in assay [9] it was 0.00511 µM; in assay [10] it was 0.00462 µM.
In the case of `CN(C)C/C=C/C(=O)Nc1ccc(C(=O)N2CCC[C@@H](Nc3ncc(Cl)c(-c4c[nH]c5ccccc45)n3)C2)cc1`, the GI50 in assay [1] was 2.31 µM; in assay [2] it was 0.149 µM; in assay [3], 0.21 µM; in assay [4], 0.422 µM; in assay [5], 0.189 µM; in assay [6], 0.138 µM. The GI50 in assay [7] is 0.285 µM; in assay [8], 0.244 µM; in assay [9], 0.176 µM; in assay [10], 0.0558 µM. Also, the TGI in assay [1] was found to be 12.9 µM; in assay [2] it was 11.3 µM; in [3] it was 9.29 µM; in assay [4], 3.83 µM; in [5] it was 0.783 µM; in [6] it was 6.71 µM. For the same compound, the TGI in assay [7] is 4.2 µM; in assay [8], 1.54 µM; in assay [9], 0.65 µM; in assay [10] it was 1.28 µM.
`C=CC(=O)Nc1cccc(Nc2nc(Nc3ccc(OCCOC(F)F)cc3)ncc2F)c1`: the GI50 in [1] is 0.515 µM; in assay [2], 1.88 µM; in [3], 2.54 µM; in assay [4], 2.48 µM; in [5], 6.99 µM; in assay [6], 5.02 µM. Also, the GI50 is 2.67 µM in [7], 2.28 µM in assay [8] and 1.37 µM in assay [10]. For the same compound, the TGI is 2.93 µM in [1]; 9.61 µM in [2]; 16.2 µM in assay [3]; 14.7 µM in assay [4]; more than 100 µM in assay [5]; 51.1 µM in assay [6]. Also, the values for the TGI in assay [7], in assay [8] and in [10] were 13.5 µM, 6.75 µM and 4.52 µM, respectively.
Regarding `O=C(O)C1C2C=CC(O2)C1C(=O)Nc1ncccn1` (centres undefined), the TGI in [1], in assay [2], in assay [3], in assay [4], in [5] and in assay [6] was more than 100 µM each time. The TGI in assay [7], in assay [8], in assay [9] and in assay [10] was more than 100 µM each time.
Regarding `C[C@@H]1C/C=C\C(=O)O[C@H](/C=C/C#C/C=C/C(C)(C)[C@@H](O)c2cccc(O)c2Br)[C@@H](C)/C=C/[C@H](C)C[C@H](OC(N)=O)C1`, the GI50 was 4.28 µM in [1]; 0.0344 µM in assay [2]; 0.0542 µM in assay [3]; 0.0411 µM in assay [4]; 0.319 µM in assay [5]; 0.0139 µM in [6]. Besides, the GI50 was 0.029 µM in assay [7], 0.0228 µM in [8] and 0.0167 µM in assay [10]. In addition, the TGI in assay [1] was 21.6 µM; in assay [2], 18.5 µM; in [3] it was 14 µM; in [4], 6.45 µM; in [5], 21.6 µM; in [6], 2.12 µM. Further, the figures for the TGI in assay [7], in [8] and in assay [10] were 5.77 µM, 0.0836 µM and 0.0447 µM, respectively.
